Results as given in patent publication EP0062319A1, “3-Methyl-1-(2-(3-naphthyloxy)-ethyl)-2-pyrazolin-5-one for the treatment of the metastasis and growth of tumour cells” (BAYER AG, priority 1981, dated 1982).

What was measured:
[1] = tested on: Lewis-Lungen-Karzinom; test: Spontaneous (full) metastasis of subcutaneously injected Lewis lung carcinoma (lung tumour colonies) in mice; format: in vivo, C57BL/6J Mäuse; settings: 0.08 mg daily s.c.
Source text: Wie bereits weiter oben festgestellt wurde, ist die Metastase […], die durch eine Reihe komplizierter Vorgänge dargestellt wird. Gegenwärtig finden zwei "Modell"-Systeme für die Untersuchung der in vivo-Metastase verbreitete Anwendung. Das erste Modellsystem umfaßt die subkutane Injektion der Tumorzellen in das Tier. Die subkutane Injektion der Tumorzellen und anschließende Entwicklung eines Primärtumors, gefolgt von spontaner Metastase, wird als "volle" Metastase betrachtet. Ein anderes Modellsystem umfaßt die Injektion der Tumorzellen durch die Schwanzvene. In Anbetracht der Komplexität der Metastase gilt die Schwanzvenen-Injektion als künstliches und nur partielles Modellsystem, da es nur die Vorgänge während des letzteren Teils der Metastase wiedergibt. Das Schwanzvenen-Modellsystem gilt jedoch auch als außerordentlich günstig im Hinblick auf eine Standardisierung der Versuchsbedingungen [vgl."Methods in Cancer Research", Kapitel VII, Academic Press, Inc., 1978].
Als Kontrolltiere wurden (unbehandelte) C57B1/6J-Mäuse nach folgender Arbeitsweise auf volle Metastase untersucht. Zellsuspensionen der B-16 - und 3LL-Karzinom-Zellen, die wie oben unter A und B beschrieben erhalten worden waren, wurden subkutan in die rechte Achselhöhlenregion der männlichen C57BL/6J-Mäuse injiziert (0,66 mm- = 26 gauge -Nadel; 0,2 ml). […]

[2] = tested on: Lewis-Lungenkarzinom-Zellen; test: DNA synthesis by 3H-thymidine uptake in Lewis lung carcinoma cells in vitro; format: cell-based, Mäuse; settings: 0,1, 1,0, 10 and 25 µg/ml, 4 h and 18 h, Fig. 1, relative to control = 100 %
Source text: Die antineoplastische Wirksamkeit wurde in vitro durch Messung der DNS-Synthese sowohl von B-16a- als auch von Lewis-Lungenkarzinom-Zellen durch eine Methode gemessen, der die Thymidin-Aufnahme zugrundeliegt. Zellen, die in Vorbereitung der Zellteilung DNS synthetisieren, sind durch ihre Fähigkeit gekennzeichnet, Thymidin aufzunehmen. Demnach ist die Zell-Proliferation mit der DNS-Synthese verbunden. Wenn die Menge der durch die Tumorzellen synthetisierten DNS vermindert wird, so ist das ein Anzeichen dafür, daß die Zellteilung und damit das Tumorwachstum gehemmt worden ist.
B-16a- und Lewis-Lungenkarzinom-Zellen wurden wie vor- stehend beschrieben erhalten. Die dispergierten Zellen wurden in sterilen 25 ml-Erlenmeyer-Kolben aus Kunststoff auf eine Konzentration von 1 x 10^5 Zellen/ml in MEM verdünnt. Tritium-markiertes Thymidin (^3H) mit einer spezifischen Aktivität von […] (50-80 Ci/mmol) wurde mit […] (2 µCi/ml) zu jedem ml der Zellsuspension hinzugefügt.
Zu einer Reihe von Kolben, die die B-16 - und Lewis-Lungenkarzinom-Zellen enthielten, wurde die Pyrazolon-Verbindung in Mengen von 0,1 , 1,0 , 10 und 25 µg/ml des Gesamtvolumens hinzugefügt. […]

## CC1=NN(CCOc2ccc3ccccc3c2)C(=O)C1 [3-Methyl-1-[2-(2-naphthyloxy)-ethyl]-2-pyrazolin-5-on]
[1]; 1 x 10^5 cells s.c., killed day 21, mean ± SEM
  Lungen-Tumor-Kolonien Lewis-Lungen-Zellen: 0.8 ± 0.5
[1]; bracketed fraction
  Lungen-Tumor-Kolonien Lewis-Lungen-Zellen (fraction in brackets): 2/12
[2]
  DNS-Synthese (3H-Thymidinaufnahme): konzentrationsabhängige Abnahme der DNS-Synthese
